Laboratory results published in patent US6737383B1, “Herbicidal oxadiazolidines” (priority 1999, dated 2004).

Experiments:
wheat = test: Test B pre/postemergence wheat; format: in vivo, Triticum aestivum
Procedure, shortened: (§1)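 Test chemicals in a non-phytotoxic solvent mixture with surfactant were sprayed preemergence onto planted seeds and postemergence onto plants 2 to 18 cm tall (1- to 4-leaf stage). After twelve to sixteen days in a greenhouse, injury was visually rated against untreated controls from 0 (no effect) to 10 (complete control).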

bedstraw = test: Test B pre/postemergence bedstraw; format: in vivo, Galium aparine; conditions: Preemergence
Procedure, shortened: as §1

velvetleaf = test: Test B pre/postemergence velvetleaf; format: in vivo, Abutilon theophrasti
Procedure, shortened: as §1

blackgrass = test: Test B pre/postemergence blackgrass; format: in vivo, Alopecurus myosuroides
Procedure, shortened: as §1

rice = test: Test B flood test rice; format: in vivo, Oryza sativa
Procedure, shortened: (§2)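 Each value is a visual injury score relative to controls, with 10 meaning complete control and 0 no effect. Evaluation took place twelve to sixteen days after the 2-leaf-stage plants were treated and kept in the greenhouse.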

sugar beet = test: Test B pre/postemergence sugar beet; format: in vivo, Beta vulgaris
Procedure, shortened: as §1

surinam grass = test: Test B pre/postemergence surinam grass; format: in vivo, Brachiaria decumbens
Procedure, shortened: as §1

giant foxtail = test: Test B pre/postemergence giant foxtail; format: in vivo, Setaria faberii
Procedure, shortened: as §1

purple nutsedge = test: Test B pre/postemergence purple nutsedge; format: in vivo, Cyperus rotundus
Procedure, shortened: as §1

smallflower flatsedge = test: Test B flood test smallflower flatsedge; format: in vivo, Cyperus difformis
Procedure, shortened: as §2

soybean = test: Test B pre/postemergence soybean; format: in vivo, Glycine max
Procedure, shortened: as §1

crabgrass = test: Test B pre/postemergence crabgrass; format: in vivo, Digitaria sanguinalis
Procedure, shortened: as §1

bamyardgrass = test: Test B flood test barnyardgrass; format: in vivo, Echinochloa crus-galli
Procedure, shortened: as §2

corn = test: Test B pre/postemergence corn; format: in vivo, Zea mays
Procedure, shortened: as §1

duck salad = test: Test B flood test duck salad; format: in vivo, Heteranthera limosa
Procedure, shortened: as §2

rape = test: Test B pre/postemergence rape; format: in vivo, Brassica napus
Procedure, shortened: as §1

cocklebur = test: Test B pre/postemergence cocklebur; format: in vivo, Xanthium strumarium
Procedure, shortened: as §1

[1] = Postemergence, Rate 125 g/ha, scale of 0 to 10 where 0 is no effect and 10 is complete control
[2] = Preemergence, Rate 62 g/ha, scale 0 to 10 (0 no effect, 10 complete control)
[3] = Preemergence, Rate 125 g/ha, 0 is no effect, 10 is complete control
[4] = Preemergence, Rate 250 g/ha, scale 0 to 10, 0 is no effect, 10 is complete control
[5] = Preemergence, Rate 500 g/ha, scale 0 to 10 (0 no effect, 10 complete control)
[6] = Rate 62 g/ha, Postemergence, scale of 0 to 10 where 0 is no effect and 10 is complete control
[7] = Rate 250 g/ha, Postemergence, scale 0 to 10, 0 is no effect, 10 is complete control
[8] = Rate 500 g/ha, Postemergence, scale 0 to 10, 0 no effect, 10 complete control
[9] = Postemergence (flood test species), Rate 125 g/ha, scale of 0 to 10 where 0 is no effect and 10 is complete control
[10] = Rate 62 g/ha, Postemergence section, flood test species, scale of 0 to 10 where 0 is no effect and 10 is complete control
[11] = Rate 250 g/ha, Postemergence (flood test), scale 0 to 10, 0 is no effect, 10 is complete control
[12] = Rate 250 g/ha, headed Pre-emergence (flood test species), scale 0 to 10 (0 no effect, 10 complete control)
[13] = Rate 500 g/ha, headed Pre-emergence (flood test species), scale 0 to 10 (0 no effect, 10 complete control)
[14] = Rate 500 g/ha, listed under Postemergence (flood test species), scale 0 to 10, 0 no effect, 10 complete control
[15] = Rate 1000 g/ha, Pre-emergence (as headed), scale 0 to 10
[16] = Rate 2000 g/ha, Pre-emergence (as headed), scale 0 to 10
[17] = Postemergence, Rate 62 g/ha, scale 0 to 10, 0 is no effect, 10 is complete control

## CC(C)N(C(=O)n1oc(=O)n(-c2cnn(C)c2)c1=O)c1ccccc1 [Compound 123]
wheat; [1]
  Wheat plant response rating: 1
wheat; [2]
  Wheat plant response rating: 0
wheat; [3]
  Wheat plant response rating (0 to 10 scale): 0
wheat; [4]
  Wheat plant response rating: 5
wheat; [5]
  Wheat plant response rating: 7
wheat; [6]
  Wheat plant response rating: 0
wheat; [7]
  Plant response rating, Wheat: 1
wheat; [8]
  Wheat plant response rating: 4
bedstraw; Rate 62 g/ha, scale 0 to 10 (0 no effect, 10 complete control)
  Bedstraw plant response rating: 0
bedstraw; Rate 125 g/ha, 0 is no effect, 10 is complete control
  Bedstraw plant response rating (0 to 10 scale): 0
bedstraw; Rate 250 g/ha, scale 0 to 10, 0 is no effect, 10 is complete control
  Bedstraw plant response rating: 0
bedstraw; Rate 500 g/ha, scale 0 to 10 (0 no effect, 10 complete control)
  Bedstraw plant response rating: 0
velvetleaf; [1]
  Velvetleaf plant response rating: 0
velvetleaf; [2]
  Velvetleaf plant response rating: 0
velvetleaf; [3]
  Velvetleaf plant response rating (0 to 10 scale): 0
velvetleaf; [4]
  Velvetleaf plant response rating: 3
velvetleaf; [5]
  Velvetleaf plant response rating: 6
velvetleaf; [6]
  Velvetleaf plant response rating: 0
velvetleaf; [7]
  Plant response rating, Velvetleaf: 0
blackgrass; [1]
  Blackgrass plant response rating: 6
blackgrass; [2]
  Blackgrass plant response rating: 0
blackgrass; [3]
  Blackgrass plant response rating (0 to 10 scale): 0
blackgrass; [4]
  Blackgrass plant response rating: 4
blackgrass; [5]
  Blackgrass plant response rating: 7
blackgrass; [6]
  Blackgrass plant response rating: 2
blackgrass; [7]
  Plant response rating, Blackgrass: 6
blackgrass; [8]
  Blackgrass plant response rating: 7
rice; [9]
  Rice plant response rating: 0
rice; [10]
  Rice plant response rating: 0
rice; [11]
  Plant response rating, Rice: 0
rice; [12]
  Rice plant response rating: 0
rice; [13]
  Plant response rating, Rice: 0
rice; [14]
  Rice plant response rating: 0
rice; [15]
  Rice plant response rating: 0
rice; [16]
  Rice plant response rating: 0
Sugar beet; [1]
  Sugarbeets plant response rating: 0
Sugar beet; [2]
  Sugarbeets plant response rating: 0
Sugar beet; [3]
  Sugarbeets plant response rating (0 to 10 scale): 3
Sugar beet; [4]
  Sugarbeets plant response rating: 5
Sugar beet; [5]
  Sugarbeets plant response rating: 7
Sugar beet; [6]
  Sugarbeets plant response rating: 0
Sugar beet; [7]
  Plant response rating, Sugarbeets: 1
Sugar beet; [8]
  Sugarbeets plant response rating: 2
Surinam grass; [17]
  B. signalgrass plant response rating: 0
Surinam grass; [1]
  B. signalgrass plant response rating: 0
Surinam grass; [2]
  B. signalgrass plant response rating: 0
Surinam grass; [3]
  B. signalgrass plant response rating (0 to 10 scale): 0
Surinam grass; [4]
  B. signalgrass plant response rating: 0
Surinam grass; [5]
  B. signalgrass plant response rating: 2
Surinam grass; [7]
  Plant response rating, B. signalgrass: 3
Surinam grass; Rate 500 g/ha, Postemergence, scale of 0 to 10 where 0 is no effect and 10 is complete control
  B. signalgrass plant response rating: 5
Giant foxtail; [1]
  Giant foxtail plant response rating: 5
Giant foxtail; [2]
  Giant foxtail plant response rating: 7
Giant foxtail; [3]
  Giant foxtail plant response rating (0 to 10 scale): 9
Giant foxtail; [4]
  Giant foxtail plant response rating: 9
Giant foxtail; [5]
  Giant foxtail plant response rating: 10
Giant foxtail; [6]
  Giant foxtail plant response rating: 3
Giant foxtail; [7]
  Plant response rating, Giant foxtail: 8
Giant foxtail; [8]
  Giant foxtail plant response rating: 9
Purple nutsedge; [1]
  Nutsedge plant response rating: 0
Purple nutsedge; [2]
  Nutsedge plant response rating: 0
Purple nutsedge; [3]
  Nutsedge plant response rating (0 to 10 scale): 0
Purple nutsedge; [4]
  Nutsedge plant response rating: 0
Purple nutsedge; [5]
  Nutsedge plant response rating: 0
Purple nutsedge; [6]
  Nutsedge plant response rating: 0
Purple nutsedge; [7]
  Plant response rating, Nutsedge: 0
Purple nutsedge; [8]
  Nutsedge plant response rating: 0
Smallflower flatsedge; [9]
  S. Flatsedge plant response rating: 0
Smallflower flatsedge; Pre-emergence, Rate 1000 g/ha, scale 0 to 10 (0 no effect, 10 complete control)
  S. Flatsedge plant response rating: 0
Smallflower flatsedge; [10]
  S. Flatsedge plant response rating: 0
Smallflower flatsedge; [11]
  Plant response rating, S. Flatsedge: 0
Smallflower flatsedge; [12]
  S. Flatsedge plant response rating: 0
Smallflower flatsedge; [13]
  Plant response rating, S. Flatsedge: 0
Smallflower flatsedge; [14]
  S. Flatsedge plant response rating: 0
Smallflower flatsedge; [16]
  S. Flatsedge plant response rating: 0
soybean; [1]
  Soybean plant response rating: 4
soybean; [2]
  Soybean plant response rating: 0
soybean; [3]
  Soybean plant response rating (0 to 10 scale): 0
soybean; [4]
  Soybean plant response rating: 0
soybean; [5]
  Soybean plant response rating: 0
soybean; [6]
  Soybean plant response rating: 2
soybean; [7]
  Plant response rating, Soybean: 4
soybean; [8]
  Soybean plant response rating: 4
crabgrass; [1]
  Crabgrass plant response rating: 4
crabgrass; [2]
  Crabgrass plant response rating: 4
crabgrass; [3]
  Crabgrass plant response rating (0 to 10 scale): 5
crabgrass; [4]
  Crabgrass plant response rating: 5
crabgrass; [5]
  Crabgrass plant response rating: 7
crabgrass; [6]
  Crabgrass plant response rating: 0
crabgrass; [7]
  Plant response rating, Crabgrass: 8
crabgrass; [8]
  Crabgrass plant response rating: 9
bamyardgrass; [9]
  Barnyardgrass plant response rating: 0
bamyardgrass; [17]
  Barnyardgrass plant response rating: 0
bamyardgrass; [11]
  Plant response rating, Barnyardgrass: 0
bamyardgrass; [12]
  Barnyardgrass plant response rating: 0
bamyardgrass; [13]
  Plant response rating, Barnyardgrass: 0
bamyardgrass; [14]
  Barnyardgrass plant response rating: 0
bamyardgrass; [15]
  Barnyardgrass plant response rating: 0
bamyardgrass; Rate 2000 g/ha, Pre-emergence (as headed), scale 0 to 10, 0 no effect, 10 complete control
  Barnyardgrass plant response rating: 0
corn; [1]
  Corn plant response rating: 0
corn; [2]
  Corn plant response rating: 0
corn; [3]
  Corn plant response rating (0 to 10 scale): 0
corn; [4]
  Corn plant response rating: 0
corn; [5]
  Corn plant response rating: 0
corn; [6]
  Corn plant response rating: 0
corn; [7]
  Plant response rating, Corn: 0
corn; [8]
  Corn plant response rating: 0
Duck salad; [9]
  Ducksalad plant response rating: 0
Duck salad; [10]
  Ducksalad plant response rating: 0
Duck salad; [11]
  Plant response rating, Ducksalad: 0
Duck salad; [12]
  Ducksalad plant response rating: 0
Duck salad; [13]
  Plant response rating, Ducksalad: 0
Duck salad; [14]
  Ducksalad plant response rating: 0
Duck salad; [15]
  Ducksalad plant response rating: 0
Duck salad; [16]
  Ducksalad plant response rating: 0
rape; [1]
  Rape plant response rating: 0
rape; [2]
  Rape plant response rating: 0
rape; [3]
  Rape plant response rating (0 to 10 scale): 0
rape; [4]
  Rape plant response rating: 0
rape; [5]
  Rape plant response rating: 0
rape; [6]
  Rape plant response rating: 0
rape; [7]
  Plant response rating, Rape: 0
rape; [8]
  Rape plant response rating: 2
cocklebur; [1]
  Cocklebur plant response rating: 0
cocklebur; [2]
  Cocklebur plant response rating: 0
cocklebur; [3]
  Cocklebur plant response rating (0 to 10 scale): 0
cocklebur; [4]
  Cocklebur plant response rating: 0
cocklebur; [5]
  Cocklebur plant response rating: 0
cocklebur; [6]
  Cocklebur plant response rating: 0
cocklebur; [7]
  Plant response rating, Cocklebur: 0
cocklebur; [8]
  Cocklebur plant response rating: 1
